Measurements as given in ChEMBL document CHEMBL3112450, “Synthesis and in vitro antitumor evaluation of primary amine substituted quinazoline linked benzimidazole” (Bioorg Med Chem Lett, 2014).

Columns and labels:
Type in all cases: functional
HCT-15 [1] = assay: Cytotoxicity against human HCT15 cells assessed as cell growth at 10^-6 M after 48 hrs by SRB assay; details: HCT-15, 48 h, read-out: Activity
DU-145 = assay: Cytotoxicity against human DU145 cells assessed as cell growth at 10^-8 M after 48 hrs by SRB assay; details: DU-145, 48 h, read-out: Activity
SK-MEL-28 = assay: Cytotoxicity against human SK-MEL-28 cells assessed as cell growth at 10^-7 M after 48 hrs by SRB assay; details: SK-MEL-28, 48 h, read-out: Activity
SN12C [2] = assay: Cytotoxicity against human SN12C cells assessed as cell growth at 10^-4 M after 48 hrs by SRB assay; details: read-out: Activity
[3] = Cytotoxicity against human UO31 cells assessed as cell growth at 10^-8 M after 48 hrs by SRB assay; details: UO-31, 48 h, read-out: Activity
U-251 [4] = assay: Cytotoxicity against human U251 cells assessed as cell growth at 10^-7 M after 48 hrs by SRB assay; details: U-251, 48 h, read-out: Activity
MCF7 = assay: Cytotoxicity against human MCF7 cells assessed as cell growth at 10^-4 M after 48 hrs by SRB assay; details: MCF7, 48 h, read-out: Activity
NCI-H23 [5] = assay: Cytotoxicity against human NCI-H23 cells assessed as cell growth at 10^-6 M after 48 hrs by SRB assay; details: NCI-H23, 48 h, read-out: Activity
PC-3 = assay: Cytotoxicity against human PC3 cells assessed as cell growth at 10^-4 M after 48 hrs by SRB assay; details: PC-3, 48 h, read-out: Activity
HOP-92 = assay: Cytotoxicity against human HOP92 cells assessed as cell growth at 10^-7 M after 48 hrs by SRB assay; details: HOP-92, 48 h, read-out: Activity
SK-MEL-2 = assay: Cytotoxicity against human SK-MEL-2 cells assessed as cell growth at 10^-8 M after 48 hrs by SRB assay; details: SK-MEL-2, 48 h, read-out: Activity
COLO 205 = assay: Cytotoxicity against human COLO205 cells assessed as cell growth at 10^-7 M after 48 hrs by SRB assay; details: COLO 205, 48 h, read-out: Activity
SK-OV-3 = assay: Cytotoxicity against human SKOV3 cells assessed as cell growth at 10^-4 M after 48 hrs by SRB assay; details: SK-OV-3, 48 h, read-out: Activity
MDA-MB-468 = assay: Cytotoxicity against human MDA-MB-468 cells after 48 hrs by SRB assay; details: MDA-MB-468, 48 h
NCI-H522 = assay: Cytotoxicity against human NCI-H522 cells assessed as cell growth at 10^-6 M after 48 hrs by SRB assay; details: NCI-H522, 48 h, read-out: Activity
UACC-62 = assay: Cytotoxicity against human UACC62 cells assessed as cell growth at 10^-8 M after 48 hrs by SRB assay; details: UACC-62, 48 h, read-out: Activity
NCI-H322M [6] = assay: Cytotoxicity against human NCI-H322M cells assessed as cell growth at 10^-6 M after 48 hrs by SRB assay; details: read-out: Activity
SK-MEL-5 = assay: Cytotoxicity against human SK-MEL-5 cells assessed as cell growth at 10^-7 M after 48 hrs by SRB assay; details: SK-MEL-5, 48 h, read-out: Activity
Malme-3M = assay: Cytotoxicity against human MALME-3M cells after 48 hrs by SRB assay
M14 = assay: Cytotoxicity against human M14 cells assessed as cell growth at 10^-8 M after 48 hrs by SRB assay; details: M14, 48 h, read-out: Activity
SN12C [7] = assay: Cytotoxicity against human SN12C cells assessed as cell growth at 10^-7 M after 48 hrs by SRB assay; details: read-out: Activity
[8] = Cytotoxicity against human OVCAR4 cells after 48 hrs by SRB assay; details: OVCAR-4, 48 h
SF-539 = assay: Cytotoxicity against human SF539 cells assessed as cell growth at 10^-8 M after 48 hrs by SRB assay; details: SF-539, 48 h, read-out: Activity
SR = assay: Cytotoxicity against human SR cells assessed as cell growth at 10^-4 M after 48 hrs by SRB assay; details: read-out: Activity
NCI-H23 [9] = assay: Cytotoxicity against human NCI-H23 cells assessed as cell growth at 10^-4 M after 48 hrs by SRB assay; details: NCI-H23, 48 h, read-out: Activity
MDA-MB-435 = assay: Cytotoxicity against human MDA-MB-435 cells assessed as cell growth at 10^-4 M after 48 hrs by SRB assay; details: MDA-MB-435, 48 h, read-out: Activity
SNB-19 = assay: Cytotoxicity against human SNB19 cells after 48 hrs by SRB assay; details: SNB-19, 48 h
K562 = assay: Cytotoxicity against human K562 cells assessed as cell growth at 10^-7 M after 48 hrs by SRB assay; details: K562, 48 h, read-out: Activity
SF-268 = assay: Cytotoxicity against human SF268 cells assessed as cell growth at 10^-7 M after 48 hrs by SRB assay; details: SF-268, 48 h, read-out: Activity
MDA-MB-231 = assay: Cytotoxicity against human MDA-MB-231 cells assessed as cell growth at 10^-8 M after 48 hrs by SRB assay; details: MDA-MB-231, 48 h, read-out: Activity
[10] = Cytotoxicity against human NCI-ADR-RES cells assessed as cell growth at 10^-6 M after 48 hrs by SRB assay; details: read-out: Activity
HCT-15 [11] = assay: Cytotoxicity against human HCT15 cells assessed as cell growth at 10^-7 M after 48 hrs by SRB assay; details: HCT-15, 48 h, read-out: Activity
[12] = Cytotoxicity against human UO31 cells assessed as cell growth at 10^-4 M after 48 hrs by SRB assay; details: UO-31, 48 h, read-out: Activity
HCT-116 = assay: Cytotoxicity against human HCT116 cells assessed as cell growth at 10^-4 M after 48 hrs by SRB assay; details: HCT-116, 48 h, read-out: Activity
NCI-H322M [13] = assay: Cytotoxicity against human NCI-H322M cells after 48 hrs by SRB assay
CAKI-1 = assay: Cytotoxicity against human Caki1 cells after 48 hrs by SRB assay; details: CAKI-1, 48 h
U-251 [14] = assay: Cytotoxicity against human U251 cells after 48 hrs by SRB assay; details: U-251, 48 h
A498 = assay: Cytotoxicity against human A498 cells assessed as cell growth at 10^-8 M after 48 hrs by SRB assay; details: A498, 48 h, read-out: Activity

Work on C=CCn1c(C)nc2ccc(Nc3nc(Nc4ccc5nc(C)n(CC=C)c5c4)c4ccccc4n3)cc21 yielded a growth at 1 µM (HCT-15 [1]) of 91%, a growth at 0.01 µM (DU-145) of 102% and a growth at 0.1 µM (SK-MEL-28) of 95%. For the same compound, the growth at 100 µM (SN12C [2]) was -50%, the growth at 0.01 µM [3] was 84% and the growth at 0.1 µM (U-251 [4]) was 94%. The growth at 100 µM (MCF7) was -22%, the growth at 1 µM (NCI-H23 [5]) was 93% and the growth at 100 µM (PC-3) was -46%. For the same compound, the growth at 0.1 µM (HOP-92) was 86%, the growth at 0.01 µM (SK-MEL-2) was 96% and the growth at 0.1 µM (COLO 205) was 101%. For the same compound, the growth at 100 µM (SK-OV-3) was -54%, the GI50 (MDA-MB-468) was 1220 nM and the TGI (MDA-MB-468) was 2480 nM. The growth at 1 µM (NCI-H522) was 114%, the growth at 0.01 µM (UACC-62) was 96% and the growth at 1 µM (NCI-H322M [6]) was 92%. For the same compound, the growth at 0.1 µM (SK-MEL-5) was 94%, the GI50 (Malme-3M) was 1900 nM and the TGI (Malme-3M) was 3680 nM. It also gave a growth at 0.01 µM (M14) of 96%, a growth at 0.1 µM (SN12C [7]) of 94% and a GI50 [8] of 1530 nM. For the same compound, the TGI [8] was 2870 nM, the growth at 0.01 µM (SF-539) was 96% and the growth at 100 µM (SR) was -2%. For the same compound, the growth at 100 µM (NCI-H23 [9]) was -42%, the growth at 100 µM (MDA-MB-435) was -5% and the GI50 (SNB-19) was 1690 nM. For the same compound, the TGI (SNB-19) was 3560 nM, the growth at 0.1 µM (K562) was 94% and the growth at 0.1 µM (SF-268) was 86%. For the same compound, the growth at 0.01 µM (MDA-MB-231) was 92%, the growth at 1 µM [10] was 90% and the growth at 0.1 µM (HCT-15 [11]) was 91%. It also gave a growth at 100 µM [12] of -46%, a growth at 100 µM (HCT-116) of 1% and a GI50 (NCI-H322M [13]) of 1710 nM. For the same compound, the LC50 (NCI-H322M [13]) was 6150 nM, the TGI (NCI-H322M [13]) was 3240 nM and the GI50 (CAKI-1) was 1720 nM. The TGI (CAKI-1) was 3360 nM, the GI50 (U-251 [14]) was 1620 nM and the TGI (U-251 [14]) was 2970 nM. The growth at 0.01 µM (A498) was 69%.
